Experimental data: US9493444B2 (Merck Patent GmbH, priority 2012, dated 2016)

test system: Wnt pathway (TCF-dependent transcription in HEK293 luciferase reporter cell line with ER-DSH construct); assay: Cellular assay for Wnt pathway activity (luciferase reporter); type: cell-based; conditions: Homo sapiens; Wnt pathway inhibition, HEK293 luciferase reporter cells (ER-DSH, TCF promoter), 24 hours incubation, estrogen-induced
Procedure, shortened: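 Luminescent luciferase read-out after 24 h compound exposure at 1 nM to 30 μM, with TCF-driven transcription switched on by estrogen addition. IC50 values come from curve fits of data normalized against the vehicle-only control.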

SMILES	IC50 [nM]
CC(=O)N(C)CCN(C)c1cncc(Oc2ccc(CO)cc2)n1 [Compound 181, N-(2-{[6-(4-Hydroxymethyl-phenoxy)-pyrazin-2-yl]-methyl-amino}-ethyl)-N-methyl-acetamide]	< 200
CC(=O)Nc1ccc(-c2ccc(Oc3cncc(N(C)CCN(C)C(C)=O)n3)cc2)cn1 [Compound 182, N-{5-[4-(6-{[2-(Acetyl-methyl-amino)-ethyl]-methyl-amino}-pyrazin-2-yloxy)-phenyl]-pyridin-2-yl}-acetamide]	< 200
CC(=O)N(C)CCN(C)c1cncc(Oc2ccc(-c3ccc(C)nc3)cc2)n1 [Compound 183, N-Methyl-N-[2-(methyl-{6-[4-(6-methyl-pyridin-3-yl)-phenoxy]-pyrazin-2-yl}-amino)-ethyl]-acetamide]	< 200
COc1ccc(-c2ccc(Oc3cncc(N(C)CCN(C)C(C)=O)n3)cc2)cn1 [Compound 184, N-[2-({6-[4-(6-Methoxy-pyridin-3-yl)-phenoxy]-pyrazin-2-yl}-methyl-amino)-ethyl]-N-methyl-acetamide]	< 200
CC(=O)N(C)CCN(C)c1cncc(Oc2ccc(-c3cnc(N)cn3)cc2)n1 [Compound 185, N-[2-({6-[4-(5-Amino-pyrazin-2-yl)-phenoxy]-pyrazin-2-yl}-methyl-amino)-ethyl]-N-methyl-acetamide]	< 200
CC(=O)N(C)CCN(C)c1cncc(Oc2ccc(-c3cnc4sc(=O)[nH]c4c3)cc2)n1 [Compound 186, N-Methyl-N-[2-(methyl-{6-[4-(2-oxo-1,2-dihydro-thiazolo[5,4-b]pyridin-6-yl)-phenoxy]-pyrazin-2-yl}-amino)-ethyl]-acetamide]	< 200
CCOC(=O)c1ncoc1-c1ccc(Oc2cncc(N(C)CCN(C)C(C)=O)n2)cc1 [Compound 187, 5-[4-(6-{[2-(Acetyl-methyl-amino)-ethyl]-methyl-amino}-pyrazin-2-yloxy)-phenyl]-oxazole-4-carboxylic acid ethyl ester]	200 to 1000
CC(=O)N(C)CCOc1cncc(Oc2ccc(F)cc2)n1 [Compound 188, N-{2-[6-(4-Fluoro-phenoxy)-pyrazin-2-yloxy]-ethyl}-N-methyl-acetamide]	1000 to 10000
CNC(=O)CCCN(C)c1cncc(Oc2ccc(F)cc2)n1 [Compound 189, 4-{[6-(4-Fluoro-phenoxy)-pyrazin-2-yl]-methyl-amino}-N-methyl-butyramide]	1000 to 10000
CC(=O)N(C)CCN(C)c1cncc(Oc2ccc(-c3cc4cc[nH]c4cn3)cc2)n1 [Compound 190, N-Methyl-N-[2-(methyl-{6-[4-(1H-pyrrolo[2,3-c]pyridin-5-yl)-phenoxy]-pyrazin-2-yl}-amino)-ethyl]-acetamide]	< 200
CC(=O)N(C)CCN(C)c1cncc(Oc2ccc(-c3ncnc4[nH]ccc34)cc2)n1 [Compound 191, N-Methyl-N-[2-(methyl-{6-[4-(7H-pyrrolo[2,3-d]pyrimidin-4-yl)-phenoxy]-pyrazin-2-yl}-amino)-ethyl]-acetamide]	< 200
CC(=O)N(C)CCN(C)c1cncc(Oc2ccc(-c3cc(C(N)=O)ccn3)cc2)n1 [Compound 192, 2-[4-(6-{[2-(Acetyl-methyl-amino)-ethyl]-methyl-amino}-pyrazin-2-yloxy)-phenyl]-isonico-tinamide]	200 to 1000
Cc1ccc(-c2ccc(Oc3cncc(N(C)CCN4CCCCC4=O)n3)cc2)nc1 [Compound 193, 1-[2-(Methyl-{6-[4-(5-methyl-pyridin-2-yl)-phenoxy]-pyrazin-2-yl}-amino)-ethyl]-piperidin-2-one]	< 200
COc1cc(-c2ccc(Oc3cncc(N(C)CCN(C)C(C)=O)n3)cc2)ccn1 [Compound 194, N-[2-({6-[4-(2-Methoxy-pyridin-4-yl)-phenoxy]-pyrazin-2-yl}-methyl-amino)-ethyl]-N-methyl-acetamide]	200 to 1000
CC(=O)N(C)CCN(C)c1cncc(Oc2ccc(-c3ccnc4ccccc34)cc2)n1 [Compound 195, N-Methyl-N-(2-{methyl-[6-(4-quinolin-4-yl-phenoxy)-pyrazin-2-yl]-amino}-ethyl)-acetamide]	< 200
